Two compounds from patent publication US20250257064A1, “TRIFLUOROMETHYL-SUBSTITUTED SULFONAMIDE AS BCL-2-SELECTIVE INHIBITOR” (Chia Tai Tianqing Pharmaceutical Group Co., Ltd., priority 2018, published 2025) can be followed below.

Structures are written as SMILES.

A short description of data set [1]: In vitro stability in mouse liver microsomes. Conditions: 1 μM. It counts as in vitro ADME. Here is the method:
(§1) Experimental Example 3: In Vitro Stability in Liver Microsome
(§2) 300 μL of the final incubation system contains 30 μL of liver microsomes (protein concentration: 5 mg/mL), 30 μL of NADPH+MgCl2, 3 μL of the test compound (in acetonitrile), and 237 μL of PBS buffer (pH 7.4), wherein the proportion of the organic solvent (acetonitrile) is 1% (volume ratio). Two duplicate samples were prepared for each specie (mouse, rat and human), and each sample was 0.3 mL. Each tube which was added with 270 μL of a mixed solution of substrate and enzyme, and NADPH, after being pre-incubated at 37° C. for 5 min, was added with 30 μL of NADPH+MgCl2 and mixed. Then 50 μL of the mixture was taken at 0 min, 15 min, 30 min and 60 min, and added with 300 μL of glacial acetonitrile containing an internal standard to terminate the reaction.
(§3) 50 μL of the incubated sample was added with 300 μL of glacial acetonitrile containing an internal standard (20 ng/mL diazepam) for precipitation, vortexed for 5 min, and centrifuged (13,000 rpm, 20° C.) for 10 min. 70 μL of supernatant was taken and diluted with 70 μL of ultrapure water. After being mixed well, 1 μL of the resulting sample was injected for analysis.

Data set [2] can be described thus: In vitro stability in rat liver microsomes. The class given is in vitro ADME. Conditions: 1 μM. Here is the method: as §1, §2, §3
Another data set in a line: Pharmacokinetics in rats. The class given is in vivo. Conditions: Sprague-Dawley, rat, plasma, po, SD rats, IG 5 mg/kg; for AUC(0-t): read-out: AUC(0-24 h); for MRT last: read-out: MRT(0-t). The protocol:
4.1 Pharmacokinetics in Rats
SD rats weighing 180-220 g were randomly grouped with 3 rats in each group after 3-5 days of adaptive feeding, and intragastrically administered with compounds 1-1 and 8-1 at a dosage of 5 mg/kg.
The animals to be tested (SD rats) were fasted for 12 h before administration and fed 4 h after administration, and water was freely drunk before, after and during the experiment.
After intragastric administration, about 0.2 mL of blood was collected from the orbit at 0 min, 15 min, 30 min, 1 h, 2 h, 4 h, 6 h, 8 h, 10 h and 24 h, and after anticoagulation with EDTA-K2, blood samples were transferred to a centrifuge within 30 min, and centrifuged at 4000 rpm for 10 min at 4° C. to separate the plasma. All plasma samples were collected and immediately stored at −20° C. for testing.
50 μL of the plasma sample to be tested was added with 300 μL of acetonitrile solution containing an internal standard (20 mg/mL diazepam), shaken and mixed well for 5 min, and centrifuged at 13,000 rpm for 10 min. 75 μL of supernatant was taken and diluted with 75 μL of ultrapure water. After being mixed well, 2 μL of the resulting sample was taken for LC/MS/MS determination, and a chromatogram was recorded.
Oral exposure of the compounds disclosed herein was evaluated by in vivo pharmacokinetic experiments in rats.

Data set [3] has as its system human platelet Caspase-3 activity. Put plainly: Human platelet toxicity experiment (Caspase-3 activity assay). Conditions: compound concentration 1 μM, 90 min; data normalized, reference ABT-199. The class given is cell-based. The protocol: Experimental Example 6: Human Platelet Toxicity Experiment (Caspase-3 Activity Assay)
10 mL of human whole blood was collected using a heparin sodium anticoagulation tube, mixed well by turning upside down, and centrifuged at 90 g for 10 min. The supernatant was collected and centrifuged at 1950 g for 10 min. The supernatant was discarded, and the residue was resuspended in 4 mL of PBS, and centrifuged at 1190 g for 5 min, and the procedure was repeated once. The supernatant was discarded, and the platelets were resuspended in PBS and adjusted to the density of 2-3×10^8 cells/mL. Cells were seeded into a 96-well plate at a density of 2-3×10^7 cells/mL and at 100 μL/well. 50 μL of control buffer was added to each negative control well, and 50 μL of compound at a corresponding concentration was added to each compound well, so that the final concentration of the compound was 2.5 μM, 2 μM, 1 μM or 0.5 μM, followed by incubation in an incubator at 37° C. for 90 min. The liquids in the 96-well plate were transferred to 1.5 mL centrifuge tubes, respectively. The tubes were centrifuged at 4° C. and 6000 g for 5 min, and placed on ice for later use after the supernatant was discarded. 5× lysis buffer was diluted into 1× lysis buffer with water in the kit, and protease inhibitor cocktail was added at a 1:200 ratio to prepare a lysis mixture for later use. 40 μL of lysis mixture was added to each centrifuge tube, and the platelets at the bottom were resuspended using a pipette. The suspension was lysed on ice for 15-20 min and centrifuged at 4° C. and 14,000 g for 10 min. The sample was sub-packaged for later use. 10× assay buffer was diluted into 1× assay buffer with water in the kit, and substrate Ac-DEVD-AMC was added at a 1:600 ratio to prepare a reaction mixture. 5 μL of assay buffer and 40 μL of reaction mixture were added to each blank control well. 5 μL of control platelet lysate and 40 μL of reaction mixture were added to each negative control well. 5 μL of platelet lysate and 40 μL of reaction mixture were added to each compound well. In this procedure, 40 μL of reaction mixture was added at last. The resulting mixture was mixed gently, and the plate was read by a PE Envision multi-functional microplate reader (excitation: 360 nm, emission: 460 nm) once every 10 min for 6 times. Caspase-3 activity was determined based on the intensity of the released AMC fluorescence, that is the slope of the fitted line to which each well corresponds represents Caspase activity (all data were normalized and the reference was ABT-199).

Regarding `CC1(C)CCC(CN2CCN(c3ccc(C(=O)NS(=O)(=O)c4ccc(NCC5CCOCC5)c([N+](=O)[O-])c4)c(Oc4cnc5[nH]ccc5c4)c3)CC2)=C(c2ccc(C(F)(F)F)cc2Cl)C1` [Compound 1-1, 4-(4-{[2-(2-chloro-4-trifluoromethylphenyl)-4,4-dimethylcyclohex-1-enyl]methyl}-piperazin-1-yl)-N-({3-nitro-4-[(tetrahydro-2H-pyran-4-ylmethyl)amino]phenyl}sulfonyl)-2-(1H-pyrrolo[2,3-b]pyridin-5-yloxy)-benzamide], the “Mouse Residual content after 60 min (%)” value in data set [1] was 78.9%. In addition, in data set [2], the “Rat Residual content after 60 min (%)” value is given as 88.4%. Moreover, in “Pharmacokinetics in rats”, the area under the curve AUC(0-inf) stood at 4460 ± 1340 ng·h/mL, the Cmax is 378 ± 83.5 ng/mL, the Tmax was 4 h and the half-life is 8.73 ± 0.31 h. Further, in “Pharmacokinetics in rats”, the AUC(0-t) stood at 3700 ± 848 ng·h/mL and the MRT last amounted to 8.95 ± 4.99 h. Moreover, the “human platelet Caspase-3 activity, Slope” value in data set [3] is on record as 0.67.
For `CC1(C)CCC(CN2CCN(c3ccc(C(=O)NS(=O)(=O)c4ccc(NC[C@H]5COCCO5)c([N+](=O)[O-])c4)c(Oc4cnc5[nH]ccc5c4)c3)CC2)=C(c2ccc(C(F)(F)F)cc2Cl)C1` [Compound 8-1], the “Mouse Residual content after 60 min (%)” value in data set [1] stood at 73.9%. For the same compound, the “Rat Residual content after 60 min (%)” value in data set [2] is 90.9%. In “Pharmacokinetics in rats”, the area under the curve AUC(0-inf) was 6560 ± 1800 ng·h/mL, the highest level (Cmax) was 739 ± 226 ng/mL, the Tmax turned out to be 4 h and the half-life was 7.62 ± 2.78 h. Besides, in the data set “Pharmacokinetics in rats”, the AUC(0-t) is 5970 ± 2020 ng·h/mL and the MRT last stood at 7.35 ± 0.45 h. In addition, the “human platelet Caspase-3 activity, Slope” value in data set [3] amounted to 0.59.
